Assay results as given in patent US6638546B2 (Council of Scientific & Industrial Research, priority 2001, dated 2003).
“Also recorded” adds a separate entry of the source.

Assays:
M2 receptors = target: T1, M2 receptors (Cavia porcellus, UniProt H0VRN8); test: Dose response curve of acetylcholine on isolated guinea pig atria; conditions: for Inhibitory effect on rate and force of contraction of guinea pig atria (M2 block): dosage range used
T1 construct: The atria beat spontaneously; from tissue; host or cells: isolated guinea pig atria
T1 sequence (H0VRN8 1-466): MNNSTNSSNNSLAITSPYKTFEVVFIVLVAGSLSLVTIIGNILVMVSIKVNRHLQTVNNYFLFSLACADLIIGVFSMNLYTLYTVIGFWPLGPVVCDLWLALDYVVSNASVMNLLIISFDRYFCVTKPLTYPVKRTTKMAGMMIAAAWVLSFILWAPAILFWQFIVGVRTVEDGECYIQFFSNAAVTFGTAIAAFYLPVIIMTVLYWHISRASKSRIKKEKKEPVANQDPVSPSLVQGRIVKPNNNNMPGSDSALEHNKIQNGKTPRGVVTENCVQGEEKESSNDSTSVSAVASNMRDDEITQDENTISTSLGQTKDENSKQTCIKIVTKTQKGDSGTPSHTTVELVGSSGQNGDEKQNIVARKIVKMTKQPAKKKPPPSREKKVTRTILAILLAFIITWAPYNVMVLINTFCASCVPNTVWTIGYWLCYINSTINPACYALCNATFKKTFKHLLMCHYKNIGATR
Protocol: The in vitro experiments were performed on atria, ileum and bladder tissues of guinea pig. Atria were removed, and one end was tied to an oxygen tube and the other end was fixed to a Force transducer (Model T-305), which is connected to a physiograph (Biodevices Physiograph). The atria beat spontaneously, and after equilibration (30 minutes), resting tension was adjusted to the peak of the length tension curve followed by a re-equilibration period (30 minutes). Cumulative concentration response curves to acetylcholine were obtained before and after addition of increasing concentrations of the compound (doses said in Example 5). Responses were expressed as a percentage of the maximal inhibition of atrial rate induced by acetylcholine in absence of the antagonist (compound).

M3 receptors [1] = target: T2, M3 receptors (Cavia porcellus, UniProt H0W1Z3); test: Dose response curve of acetylcholine on guinea pig bladder detrusor strips; conditions: 98, 196 and 392×10^−6 moles per ml of bath
T2 construct: from tissue; host or cells: guinea pig longitudinal ileal muscle; guinea pig bladder detrusor strips
Text: (§1) The three doses prepared and applied were 98×10^−6 moles per milliliter of bath concentration; 196×10^−6 moles per milliliter of bath concentration and 392×10^−6 moles per milliliter of bath concentration. For comparative purposes, the three doses of atropine used were 35×10^−6 moles per milliliter of bath concentration; 86×10^−6 moles per milliliter of bath concentration and 173×10^−[…] moles per milliliter of bath concentration.
The longitudinal bladder detrusor strips were suspended under a resting tension (0.5 g) in aerated Tyrode physiological solution. Tension was measured with an isometric force transducer (FT 305), and responses were recorded on a Biodevices Physiograph. Antimuscarinic activity was determined from concentration response curves to acetylcholine in the absence or presence of increasing concentrations of the said compound. Contractile responses were expressed as a percentage of the maximum contraction elicited by acetylcholine in the absence of the said compound.

Salmonella = Salmonella and mammalian microsome assays; cited from earlier work
M1 receptors = target: T3, M1 receptors (Rattus norvegicus, UniProt P08482); test: Basal gastric acidity by pyloric ligation in rats; assay type: in vivo; conditions: for % inhibition of gastric acidity: 15 min before pyloric ligation
T3 construct: from tissue; host or cells: living albino rats (stomach)
T3 sequence (P08482 1-460): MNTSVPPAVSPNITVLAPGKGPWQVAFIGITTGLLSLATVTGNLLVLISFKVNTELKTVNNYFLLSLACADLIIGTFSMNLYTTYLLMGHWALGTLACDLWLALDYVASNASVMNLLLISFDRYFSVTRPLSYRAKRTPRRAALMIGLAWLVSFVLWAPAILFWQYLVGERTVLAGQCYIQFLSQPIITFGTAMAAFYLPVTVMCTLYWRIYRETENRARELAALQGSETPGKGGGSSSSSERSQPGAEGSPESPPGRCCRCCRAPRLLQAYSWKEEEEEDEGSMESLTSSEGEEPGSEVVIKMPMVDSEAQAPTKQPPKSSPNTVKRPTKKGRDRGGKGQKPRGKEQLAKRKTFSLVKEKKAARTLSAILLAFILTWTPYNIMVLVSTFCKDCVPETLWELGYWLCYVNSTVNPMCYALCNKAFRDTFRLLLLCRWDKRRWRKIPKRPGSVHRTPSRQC
Protocol: These activities were tested upon rats. […] For comparative purposes, the doses of atropine used for testing gastric acidity were 0.01 milligram per kilogram of the body weight of rat injected subcutaneously (0.01 mg/kg s.c), 0.05 milligram per kilogram of the body weight of rat injected subcutaneously (0.05 mg/kg s.c), 0.10 milligram per kilogram of the body weight of rat injected subcutaneously (0.10 mg/kg s.c.).
The in vivo experiments for gastric acidity testing were performed by pyloric ligation on rats. Albino rats of either sex weighing 190-250 grams were randomly divided into groups of 6, with a group of 6 rats serving as control. All the rats were starved for 48 hours prior to the experiment. After the first 24 hours, they were given access to 8% sucrose in 0.2% sodium chloride for 8 hours. Water was permitted adlibitum except during the 8 hours of sucrose treatment and 2 hours previous to pyloric ligation.
Basal gastric acidity was determined by pyloric ligation under ether anaesthesia followed by gastric lavage with normal saline. […] Three hours later the animals were killed and the stomach was tied at the oesophageal junction and removed. The contents were collected by cutting along the greater curvature and the free acidity was determined by titration against 0.01 normal NaOH using Topfers reagent as indicator.

M3 receptors [2] = target: T2, M3 receptors; test: Dose response curve of acetylcholine on isolated guinea pig ileum; conditions: 98, 196 and 392×10^−6 moles per ml of bath
Text: as §1
The longitudinal ileal muscle was suspended in an organ bath in aerated Tyrode solution. […]. Doses of the compound were as given in Example 5.

[3] = rat, in vivo; cited from earlier work

T2 sequence (H0W1Z3 1-590): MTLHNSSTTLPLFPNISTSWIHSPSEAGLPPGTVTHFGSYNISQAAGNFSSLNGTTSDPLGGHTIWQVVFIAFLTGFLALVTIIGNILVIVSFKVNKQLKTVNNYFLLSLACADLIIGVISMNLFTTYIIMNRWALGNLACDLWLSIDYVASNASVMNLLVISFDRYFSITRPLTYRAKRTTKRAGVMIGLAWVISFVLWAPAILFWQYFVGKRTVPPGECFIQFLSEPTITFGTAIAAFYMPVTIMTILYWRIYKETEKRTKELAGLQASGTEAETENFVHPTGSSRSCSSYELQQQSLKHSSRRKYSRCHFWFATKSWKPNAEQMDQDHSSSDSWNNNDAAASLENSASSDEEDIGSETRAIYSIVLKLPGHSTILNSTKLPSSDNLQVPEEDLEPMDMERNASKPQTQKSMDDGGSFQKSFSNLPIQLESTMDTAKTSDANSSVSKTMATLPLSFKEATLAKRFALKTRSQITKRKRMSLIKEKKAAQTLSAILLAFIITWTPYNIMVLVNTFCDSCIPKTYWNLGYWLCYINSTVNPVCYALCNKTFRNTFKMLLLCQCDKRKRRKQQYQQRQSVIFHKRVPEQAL

Structure (SMILES) | Inhibitory effect on rate and force of contraction of guinea pig atria (M2 block) (M2 receptors) | Antagonism of acetylcholine on bladder detrusor strips (M3 receptors [1]) | Mutagenic effect (Salmonella) | % inhibition of gastric acidity (M1 receptors; rat, 1 mg/kg s.c.) [%] | % inhibition of gastric acidity (M1 receptors; rat, 3 mg/kg s.c., 3 mg/kg) [%] | % inhibition of gastric acidity (M1 receptors; rat, 5 mg/kg s.c., 5 mg/kg) [%] | Effect on basal gastric (free) acidity (M1 receptors; rat, 1, 3 & 5 mg/kg s.c.) | ED50 (M1 receptors; sc, rat, s.c., read-out: ED50 for inhibition of gastric acidity) [mg/kg] | Antagonism of acetylcholine contractions of ileum smooth muscle (M3 receptors [2]) | Inotropic or chronotropic effect on its own on guinea pig atrium (M2 receptors; 20, 40, 196 and 392×10^−6 moles per ml of bath) | Oral toxicity [3]
CN1[C@@H]2CC[C@H]1C[C@@H](OC(=O)C(CO)c1ccccc1)C2 (stereo partly drawn) [Atropine, reference compound] | inhibitory effect on all the three receptors |  |  |  |  |  |  |  |  |  | 
CCCCCCCCCCCCCCCC(=O)OC [methyl palmitate] | had no such effect in the dosage range used; also recorded: does not block M2 receptors | antagonised the effect of acetylcholine in a dose-dependent and competitive manner | devoid of any mutagenic effect | 50.72 | 55 | 91.5 | decreased free acidity; also recorded: inhibited basal gastric acidity dose dependently | 2.74 | antagonised contractions of smooth muscle of the ileum | did not produce any positive inotropic or chronotropic effect | nontoxic
